“And” between values parts separate entries of the source, which are not always exact repeats. Equal values may be shown once. Where a name gives a salt, the structure may show the parent alone.
Tested on: 5-HIAA release in the rat prefrontal cortex
Assay: Microdialysis: 5-HIAA release in prefrontal cortex after I.P. administration
Type: in vivo
Conditions: for 5-HIAA release, MEAN / 5-HIAA release, individual animals: 0.3 mg/kg I.P.; for 5-HIAA release, MEAN: n = 8; for 5-HIAA release, individual animals: one column per animal R#11,12,18,23,29,30,17,24, hydrochloride; for levels of 5-HIAA compared to the citalopram treated group (significant): SON-117 0.1 mg/kg
Description: The aim of the study was to evaluate, using microdialysis, the effects of an intraperitoneal (I.P.) administration in rats of three different doses of SON-117 on dopamine and its metabolites, serotonin and its metabolite (5-HIAA), and norepinephrine levels in prefrontal cortex.
Thirty-two adult male Wistar rats were used for the whole study (4 groups of eight animals planned for the study, Table 1).
Surgery was performed on rats weighing about 300 g at the beginning of the experiments. Rats were anaesthetized with Ketamine (50 mg/kg) & Xylazine (15 mg/kg) by intramuscular administration. The animals were placed in a stereotaxic apparatus in the flat-skull position at a constant setting of −3.3 mm between ear bars and the incisor bar. The animals were treated with a local anesthesic (xylocaine 1%, Astra Zeneca) and an analgesic (Temgesic, from Schering Plough, 0.05 mg/kg, s.c.). A rostrocaudal midline incision was made with a lancet to expose the dorsal skull surface. The “stereotaxic zero” was defined by the Bregma in accordance with Paxinos and Watson's atlas (1986). A hole was drilled in the skull with a drill and the meninges were pierced with a sterile needle to implant a CMA12 guide cannula which later received the dialysis probe.
Coordinates used for implanting guide cannula in prefrontal cortex from Bregma were anteroposterior 3.7 mm, mediolateral 0.8 mm, and dorsoventral −2 mm (top of the probe was at −5 mm). The guide cannula was fixed to the skull with two stainless steel screws (1.88 mm outside diameter) anchored. An application of dental cement was added. A plastic collar allowed each animal to be tethered to a Swivel assembly of the CMA 120 awake animal system. Following surgery, rats were kept in individual cages and allowed to recover for a minimum of 3-5 days before the experimentation. The rats were handled and put in plastic bowl for 10 min at least every day to habituate the animals to their new environment for the dialysis. An I.P. administration with saline was also performed every day.
Dialysis probes (CMA12/3 mm, membrane, 20 kD cut-off, Carnegie Medicine, Stockholm, Sweden), were carefully washed before inserting into the guide cannula. The wash was performed with the artificial cerebrospinal fluid (aCSF) medium (NaCl 147 mM, KCl 2.7 mM, CaCl2 1.2 mM, MgCl2 0.85 mM) at room temperature. The dialysis system was then equilibrated at 20° C. at a perfusion rate of 1 μl/min with a Carnegie pump (CMA100). All catheters (FEP tubing, internal volume of 1.2 μl/10 cm, and tubing adaptors) used for microdialysis were treated in the same conditions.
The probes duly prepared were inserted into the guide cannula and the CMA120 Swivel assembly secured to the animal using a plastic collar. Flow through the dialysis probe with aCSF was maintained at a rate of 1 μl/min during the whole experimentation. The first four fractions (corresponding to 2 hours) were discarded to avoid the effects of parenchymal disturbance and to ensure that an approximate steady-state level was reached. Fractions were then collected over a period of 8.5 h during which time the animals remained quiet. The dialysates were automatically collected with an autosampler (microfraction collector CMA 140, Carnegie Medicin) and stored at −80° C. until analysis. […] Perfusion was then maintained for 7 hours with aCSF. The dialysates (30 μl) were collected into 300 μl vials, transferred into dry ice and then kept frozen (−80° C.) until analysis. Frozen samples were shipped to a partner for analysis. At the end of the microdialysis study, a PBS with colored ink was perfused through the probe in order to visualize the dialyzed area.
Catecholamine assay: Concentrations of dopamine, DOPAC, HVA, 5-HIAA, 5-HT, and norepinephrin were determined for each sample by HPLC coupled with electrochemical detection.

## Cc1nnc(-c2cc3c(OC[C@@H](O)CN4CCC(c5ccc(Cl)c(Cl)c5)CC4)cccc3o2)o1 [SON-117, (S)-1-(4-(3,4-dichlorophenyl)piperidino)-3-(2-(5-methyl-1,3,4-oxadiazol-2-yl)benzo(b)furan-4-yloxy)-2-propanol hydrochloride]
T3 h 30-T4 h
  5-HIAA release, MEAN: 86.84 % of respective basal
  5-HIAA release, individual animals: 84.27 % of respective basal and 78.82 % of respective basal and 113.26 % of respective basal and 50.70 % of respective basal and 79.10 % of respective basal and 97.98 % of respective basal and 103.77 % of respective basal
T3 h-T3 h 30
  5-HIAA release, MEAN: 85.23 % of respective basal
  5-HIAA release, individual animals: 91.97 % of respective basal and 87.81 % of respective basal and 101.16 % of respective basal and 49.70 % of respective basal and 76.51 % of respective basal and 101.56 % of respective basal and 87.92 % of respective basal
T4 h 30-T5 h
  5-HIAA release, MEAN: 79.56 % of respective basal
  5-HIAA release, individual animals: 106.09 % of respective basal and 92.34 % of respective basal and 55.38 % of respective basal and 93.00 % of respective basal and 34.98 % of respective basal and 60.78 % of respective basal and 97.49 % of respective basal and 96.40 % of respective basal
T4 h-T4 h 30
  5-HIAA release, MEAN: 83.02 % of respective basal
  5-HIAA release, individual animals: 101.39 % of respective basal and 87.58 % of respective basal and 68.33 % of respective basal and 105.89 % of respective basal and 46.22 % of respective basal and 58.28 % of respective basal and 100.16 % of respective basal and 96.30 % of respective basal
T5 h 30-T6 h
  5-HIAA release, MEAN: 76.13 % of respective basal
  5-HIAA release, individual animals: 99.18 % of respective basal and 83.12 % of respective basal and 47.00 % of respective basal and 91.59 % of respective basal and 31.98 % of respective basal and 58.90 % of respective basal and 95.96 % of respective basal and 101.31 % of respective basal
T5 h-T5 h 30
  5-HIAA release, MEAN: 70.00 % of respective basal
  5-HIAA release, individual animals: 36.17 % of respective basal and 102.81 % of respective basal and 51.02 % of respective basal and 88.56 % of respective basal and 33.58 % of respective basal and 69.56 % of respective basal and 91.58 % of respective basal and 86.71 % of respective basal
T6 h 30-T7 h
  5-HIAA release, MEAN: 77.53 % of respective basal
  5-HIAA release, individual animals: 93.10 % of respective basal and 92.17 % of respective basal and 48.56 % of respective basal and 102.17 % of respective basal and 26.99 % of respective basal and 69.28 % of respective basal
T6 h-T6 h 30
  5-HIAA release, MEAN: 75.56 % of respective basal
  5-HIAA release, individual animals: 95.37 % of respective basal and 79.54 % of respective basal and 45.32 % of respective basal and 101.94 % of respective basal and 31.32 % of respective basal and 69.73 % of respective basal and 87.93 % of respective basal and 93.33 % of respective basal
T-30 min-T0 (before administration)
  5-HIAA release, MEAN: 101.34 % of respective basal
T-1 h 30-T-1 h (before administration)
  5-HIAA release, MEAN: 96.20 % of respective basal
T-1 h-T-30 min (before administration)
  5-HIAA release, MEAN: 102.47 % of respective basal
SON-117 0.1 mg/kg I.P.
  5-HIAA dialysate levels vs mean pre-administration value: no statistically significant differences
At 0.5 h
  levels of 5-HIAA compared to the citalopram treated group (significant): lower
At 4.5 h, 5 h, 6.5 h
  levels of 5-HIAA compared to the citalopram treated group (significant): higher
SON-117 0.3 mg/kg IP, at 3.5 h and from 4.5 h to 7 h
  5-HIAA concentrations in prefrontal cortex, change: significant and stable slight decrease
SON-117 0.3 mg/kg, in function of time
  5-HIAA, difference to the citalopram group: no significant difference
